According to US20240262844A1, “PYRIDINIUM SALTS AND METHODS OF USE” (UNIVERSITY OF WYOMING, priority 2023, published 2024):
Several values for one entry are separate records, joined by “and”; a condition that tells them apart may be missing. Identical values can stand only once. Entries after “also recorded” stand apart in the source; their conditions may differ. Counter-ions that a name gives are not always drawn.

What was measured:
HEK293T lysates = test: Chemoproteomic profiling of HEK293T lysates (protein-level enrichment); assay type: biochemical, Human; conditions: for proteome labeling profile, streptavidin-HRP Western blot of elution profiles: 0-100 μM probe, with and without irradiation, before digestion; for number of proteins identified (from ≥2 unique peptides) with ≥2-fold enrichment versus DMSO: about 100 μM probe, 60 min incubation, 20 min irradiation (302 nm 1a, 320 nm 1b, 440 nm 2b)
Description: In lysate tryptophan probe treatment for protein-level characterization: HEK293T cell pellets were suspended in native lysis buffer (50 mM HEPES pH 7.5, 150 mM sodium chloride (NaCl), 1.5 mM MgCl2, 1 mM DTT, 0.8% NP-40, 5% glycerol, and 1x protease inhibitors (Thermo)) at 2x the pellet volume. The samples were sonicated on ice for 30 seconds at 20% amplitude with a 2 second pulse ON and 3 second pulse OFF. Cell debris was removed by centrifugation at 20,000×g for 20 minutes at 4° C. Protein concentration was determined by bicinchoninic acid (BCA) (Pierce) and diluted down to 5 mg/mL with ChemProt buffer (50 mM HEPES pH 7.5, 150 mM NaCl, 1.5 mM MgCl2, 1 mM DTT, 0.4% NP-40, and 1x protease inhibitors (Thermo). 5 mg cell lysates were treated with 100x stocks of the tryptophan probes (pyridinium salts 1a, 1b, and 2b) to generate final concentrations (0, 1, 10, and 100 μM) in 1% DMSO. Lysates were incubated for 1 hour at 4° C. followed by photo-activation at respective wavelengths for 20 minutes at 4° C. Excess probe was removed using Sephadex G-25 PD-10 desalting columns (GE Healthcare) pre-equilibrated with 50 mM HEPES pH 7.5, 150 mM NaCl, 1.5 mM MgCl2, and 0.4% NP-40. The samples were then treated with 100 μL Neutravidin resin as a 50% slurry (Peirce). The samples were incubated overnight on a rotating apparatus at R.T. The following day, the beads were transferred to a MobiCol column (Boca Scientific), washed 3× with phosphate buffered saline (PBS) containing 0.2% SDS, washed 3x with PBS, and the enriched proteins were eluted with 2×NuPAGE lithium dodecyl sulfate (LDS) containing 10 mM DTT (Pierce) and heated for 30 minutes at 55° C. The eluent was collected and subsequently treated with 20 mM iodoacetamide (Pierce) for 30 minutes at R.T. protected from light. Samples were passed through detergent removal columns (Pierce) that were pre-equilibrated with 50 mM HEPES pH 8.0. The samples were treated with 2.5 μg Trypsin/LysC (Promega) at 37° C. for 16 hours. The following day, the sample was collected and prepped for isobaric labeling with TMT reagents (Thermo) as specified by the manufacturer.
Quantitative proteomics by two-dimensional nano liquid chromatography-tandem mass spectrometry (nLC-MS/MS): For protein-level characterization, the TMT-labeled sample were reconstituted in 0.1% formic acid (FA)/2% acetonitrile for offline high-pH reversed phase separation (RP10) using a Dionex UltiMate 3000 high-performance liquid chromatography (HPLC) system with fraction collection using Chromeleon v.6.8 (Thermo) software. Separation was achieved on a Waters Xbridge C18 3.5 μm 2.1×150 mm HPLC column (Waters) using a flow rate of 250 μL min-1 and the following ternary gradient and conditions: mobile phase A=water (HPLC grade), mobile phase B=acetonitrile (HPLC grade), and mobile phase C=200 mM ammonium acetate, pH 10. Mobile phase C is held at 10% throughout gradient. Starting conditions are 89% mobile phase A and 1% mobile phase B, ramping mobile phase B to 80% over 65 min. Fractions were collected in 96-well plates at 100 see per well. Fractions were reduced down to 12 fractions, dried, and reconstituted in 0.1% FA/2% acetonitrile for nLC-MS/MS. All data were acquired using a Orbitrap Fusion Lumos coupled to an Easy-nLC 1200 nanoflow liquid chromatograph operating at 300 nL min^−1. Peptides were cleaned up using a 1 cm online custom trap then eluted on a custom 20 cm laser pulled 75 μm column with C18 resin. Peptides were quantified using the synchronous precursor selection (SPS-MS3) or HCD method for TMT quantitation with 120k MS1 resolving power, 50 ms max injection time and 100% AGC. MS2 spectra were selected using the top ten most abundant features with a charge state between 2-6 using CID (collision induced dissociation) in the ion trap. The AGC was set to 100% with an isolation width of 0.7. MS3 was performed on the top 10 most abundant MS2 features between 400-1600 amu with a collision energy of 55%, AGC of 250%, and 50k resolution. […]

lysozyme (14.3 kDa) = biological target: T1, lysozyme (14.3 kDa) (Gallus gallus, UniProt P00698); test: Photochemical labeling of lysozyme (LC/MS); assay type: biochemical, chicken; conditions: 500 μM pyridinium salt 2c, 300 μM glutathione
T1 construct: Lysozyme (from chicken egg white, >40,000 units/mg of protein); purchased Sigma Aldrich; host or cells: chicken egg white
T1 sequence (P00698 19-147): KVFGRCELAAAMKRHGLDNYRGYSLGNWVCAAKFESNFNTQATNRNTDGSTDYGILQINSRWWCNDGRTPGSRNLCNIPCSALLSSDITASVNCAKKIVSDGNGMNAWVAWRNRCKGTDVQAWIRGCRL
Description: General Procedure B: Photochemical Irradiation of Peptides and Proteins: To a 2 mL Pyrex LC/MS vial (Thermo model #03-391-39) were sequentially added solutions containing the desired biomolecule, glutathione (GSH), pyridinium salt, and ammonium acetate (NH4OAc). The resulting solution was diluted to a final volume of 500 μL and then sparged using nitrogen for a minimum of 30 minutes prior to irradiation. The actively sparging solution was then placed in an EvoluChem™ PhotoRedOx Box photoreactor that was equipped with a Kessil, PR160 427 nm LED Lamp and was then irradiated (100% lamp intensity) for the designated time at room temperature while maintaining active sparging. The resultant reaction mixture was then analyzed directly by LC/MS. Analysis of labeling outcomes using LC/MS was performed either by extracted ion chromatogram intensities (method A) or by integrating the area under the peaks associated with peptide content (method B). These values were totaled, and estimated percentages were assigned according to relative intensities of peaks or ion counts.
Labeling of Lysozyme with Pyridinium Salt 2a (Lysozyme-2a Conjugate). Labeling of lysozyme (14.3 kDa) with the pyridinium salt 2a was performed by following general procedure B using the following solutions: lysozyme (27 μL, 182 μM, 10 μM final concentration), pyridinium salt 2a (200 μL, 500 μM, 200 μM final concentration), NH4+OAc (100 μL, 100 mM, pH=6.9, 20 mM final concentration), glutathione (15 μL, 10 mM, 300 μM final concentration), and water (158 μL) with a 100% intensity irradiation time of 60 minutes. The reaction mixture was analyzed directly by LC/MS using method A and was estimated to have proceeded in >95% conversion and a 10.9:1 mono:di labeled ratio and 10% glutathionylation of all unlabeled and labeled protein content was observed.
Labeling of Lysozyme with Pyridinium Salt 2b (Lysozyme-2b Conjugate). Labeling of lysozyme (14.3 kDa) with the pyridinium salt 2b was performed by following general procedure B using the following solutions: lysozyme (19 μL, 262 μM, 10 μM final concentration), 2b (181 μL, 554 μM, 200 μM final concentration), NH4OAc (50 μL, 200 mM, pH=6.9, 20 mM final concentration), glutathione (50 μL, 3 mM, 300 μM final concentration), and water (200 μL) with a 100% intensity irradiation time of 10 minutes. The reaction mixture was analyzed directly by LC/MS using method A and was estimated to have proceeded with 83% conversion. Partial oxidation at biotin obfuscated estimation of both oxidation and glutathionylation. Lysozyme-2b conjugate (retention time (Tr)=2.80-5.17 min).
Labeling of Lysozyme with Pyridinium Salt 2c (Lysozyme-2c Conjugate). Labeling of lysozyme (14.3 kDa) with the pyridinium salt 2c was performed by following general procedure B using the following solutions: lysozyme (19 μL, 262 μM, 10 μM final concentration), pyridinium salt 2c(367 μL, 680 μM, 500 μM final concentration), NH4OAc (50 μL, 200 mM, pH=6.9, 20 mM final concentration), glutathione (50 μL, 3 mM, 300 μM final concentration), and water (14 μL) with a 100% intensity irradiation time of 10 minutes. The reaction mixture was analyzed directly by LC/MS using method A and was estimated to have proceeded with 85% conversion and a 3.7:1 mono:di labeled ratio and 10% glutathionylation of all protein content was observed. Lysozyme-2c conjugate (retention time (Tr)=3.11-5.07 min).
Labeling of Lysozyme with Pyridinium Salt 2d (Lysozyme-2d Conjugate). Labeling of lysozyme (14.3 kDa) with the pyridinium salt 2d was performed by following general procedure B using the following solutions: Lysozyme (16.8 μL, 0.297 mM solution in H2O, final concentration […]), pyridinium salt 2d (91.8 μL, 1.09 mM solution in CH3CN/H2O (2:3), final concentration 200 μM), NH4OAc (50 μL, 200 mM in H2O, final concentration 20 mM, pH 6.9), glutathione (15 μL, 10 mMsolution in H2O, final concentration 300 μM), and water (326.4 μL) with a 100% intensity irradiation time of 20 minutes. […]

[1] = Water solubility of salt forms; assay type: physicochemical; conditions: trifluoroacetate salt compared to the tetrafluoroborate salt
Description: Pyridinium salt 2c was synthesized by adapting general procedure A as follows: To a flame dried round-bottom flask equipped with a stir bar was added 4-(6-methoxynaphthalen-2-yl)-2,6-dimethylpyrylium tetrafluoroborate (S2) (80 mg, 0.23 mmol), 6-((4R,5S)-5-methyl-2-oxoimidazolidin-4-yl)hexyl 1-methylhydrazine-1-carboxylate S6 (110 mg, 0.404 mmol), and ethanol (1.2 mL) and stirred for 24 hours at 60° C. The reaction mixture was then concentrated using a rotary evaporator. The resulting residue was dissolved in dichloromethane and washed with 10% fluoroboric acid (HBF4, aqueous) (2×10 mL), saturated NaBF4 (aqueous) (2×10 mL), dried over […], filtered, and concentrated using a rotary evaporator. The resulting green solid was then sonicated in hexanes followed by decanting of the supernatant. This procedure was repeated 5 times and the resulting solid was dried under vacuum to obtain the tetrafluoroborate salt of 2c as a green solid (119 mg, 76%). The tetrafluoroborate salt of 2c was further purified by HPLC using general method B to yield the trifluoroacetate (X=TFA, CF3CO2^−) salt of 2c.

SMILES	proteome labeling profile, streptavidin-HRP Western blot of elution profiles (HEK293T lysates)	number of proteins identified (from ≥2 unique peptides) with ≥2-fold enrichment versus DMSO (HEK293T lysates) [proteins]	conversion (lysozyme (14.3 kDa); 10 μM lysozyme, 20 mM NH4OAc pH 6.9, 427 nm, 10 minutes, trifluoroacetate)	glutathionylation of all protein content (lysozyme (14.3 kDa); 10 minutes irradiation) [%]	water solubility [1]
Cc1cc(-c2ccccc2)cc(C)[n+]1N(C)C(=O)OCCCCC[C@@H]1SC[C@@H]2NC(=O)N[C@@H]21 [Pyridinium salt 1b, 2,6-dimethyl-1-(methyl(((5-((3aS,4S,6aR)-2-oxohexahydro-1H-thieno[3,4-d]imidazole-4-yl)pentyl)oxy)carbonyl)amino)-4-phenylpyridin-1-ium tetrafluoroborate]	concentration and optically dependent proteome labeling profiles; also recorded: dose-response profiles	365			
Cc1cc(C)[n+](N(C)C(=O)OCCCCC[C@@H]2SC[C@@H]3NC(=O)N[C@@H]32)c(C)c1 [Pyridinium salt 1a, 2,4,6-trimethyl-1-(methyl(((5-((3aS,4S,6aR)-2-oxohexahydro-1H-thieno[3,4-d]imidazol-4-yl)pentyl)oxy)carbonyl)amino)pyridin-1-ium tetrafluoroborate]	concentration and optically dependent proteome labeling profiles; also recorded: loss of signal	185			
COc1ccc2cc(-c3cc(C)[n+](N(C)C(=O)OCCCCCC[C@H]4NC(=O)N[C@H]4C)c(C)c3)ccc2c1 [Pyridinium salt 2c, 4-(6-methoxynaphthalen-2-yl)-2,6-dimethyl-1-(methyl(((6-((4R,5S)-5-methyl-2-oxoimidazolidin-4-yl)hexyl)oxy)carbonyl)amino)pyridin-1-ium trifluoroacetate]			85% and 86%	10	superior water solubility
